# Experiments:
# [1] = system: Escherichia coli; assay: Antibacterial activity against Escherichia coli ATCC 11775 assessed as reduction in microbial growth after 24 hrs by spectrophotometric method; assay type: functional, organism-based; details: ATCC 11775, 24 h
# [2] = system: Candida albicans; assay: Antifungal activity against Candida albicans ATCC 10231 assessed as reduction in microbial growth after 48 hrs by spectrophotometric method; assay type: functional, organism-based; details: ATCC 10231, 48 h
# [3] = system: Staphylococcus aureus; assay: Antibacterial activity against Staphylococcus aureus ATCC 25923 assessed as reduction in microbial growth after 24 hrs by spectrophotometric method; assay type: functional, organism-based; details: ATCC 25923, 24 h
# [4] = system: SW-620; assay: Antiproliferative activity against human SW620 cells assessed as reduction in cell viability after 48 hrs by MTT assay; assay type: functional, cell-based; details: SW-620, 48 h
# [5] = system: SW620/AD300; assay: Antiproliferative activity against human SW620/AD300 cells assessed as reduction in cell viability after 48 hrs by MTT assay; assay type: functional, cell-based; details: SW620/AD300, 48 h
IC50 [4],IC50 [5],Structure (SMILES),IC50 [1],IC50 [2],IC50 [3]
> 30 µM,–,COc1c2c(cc3c1[C@H](c1ccccc1)[C@H]1C(=O)N4C[C@H](Cc5ccccc5)N(C(C)=O)C[C@@H]4[C@@H]31)OCO2,> 30 µM,> 30 µM,> 30 µM
> 30 µM,–,COc1cc(C[C@H]2CN3C(=O)/C(=C/c4ccccc4)[C@H](c4cc(OC)c5c(c4)OCO5)[C@H]3CN2C(C)=O)cc2c1OCO2,> 30 µM,> 30 µM,> 30 µM
> 30 µM,–,COc1cc([C@H]2/C(=C\c3ccccc3)C(=O)N3C[C@H](Cc4ccccc4)N(C(C)=O)C[C@H]23)cc2c1OCO2,> 30 µM,> 30 µM,> 30 µM
> 30 µM,–,COc1cc(C[C@H]2CN3C[C@@H]4[C@@H](c5ccccc5)c5c(cc6c(c5OC)OCO6)[C@@H]4[C@H]3CN2C(C)=O)cc2c1OCO2,> 30 µM,> 30 µM,> 30 µM
> 30 µM,–,COc1cc([C@@H]2[C@H]3CN(C(C)=O)[C@@H](Cc4ccccc4)CN3C(=O)[C@@]23O[C@H]3c2ccccc2)cc2c1OCO2,> 30 µM,> 30 µM,> 30 µM
> 30 µM,–,COc1c2c(cc3c1[C@H](c1ccccc1)[C@@]1(O)C(=O)N4C[C@H](Cc5ccccc5)N(C(C)=O)C[C@@H]4[C@@H]31)OCO2,> 30 µM,> 30 µM,> 30 µM
> 30 µM,–,COc1cc(C[C@H]2CN3C(=O)[C@@]4(O[C@H]4c4ccccc4)[C@H](c4cc(OC)c5c(c4)OCO5)[C@H]3CN2C(C)=O)cc2c1OCO2,> 30 µM,> 30 µM,> 30 µM
> 30 µM,–,COc1cc(C[C@H]2CN3C[C@]4(O)[C@@H](c5ccccc5)c5c(cc6c(c5OC)OCO6)[C@@H]4[C@H]3CN2C(C)=O)cc2c1OCO2,> 30 µM,> 30 µM,> 30 µM
–,> 30 µM,COc1ccc(CCN(C)CCCC(C#N)(c2ccc(OC)c(OC)c2)C(C)C)cc1OC (stereo not given),–,–,–
0.11 µM,4.9 µM,COc1cccc2c1C(=O)c1c(O)c3c(c(O)c1C2=O)C[C@@](O)(C(=O)CO)C[C@@H]3O[C@H]1C[C@H](N)[C@H](O)[C@H](C)O1 [DOXORUBICIN],–,–,–
